Assay results reported in patent publication US11103504B2, “Combination of a DNA condensation-inducing compound and an Eis inhibitor for antibiotic treatment” (priority 2018, dated 2021).

Experiments:
M. tuberculosis mc^26030 [1] = assay: DNA-condensation incidence by fluorescence microscopy; format: cell-based, Mycobacterium tuberculosis; details: for fraction of bacilli with condensed DNA: 20 times the MIC50, 1 hour, vs control, P<0.05, FIG. 2D; for induction of condensation of the DNA: summary statement
M. smegmatis mc^2155 [2] = assay: Monitoring mycobacterial survival (OD600, CFU); format: cell-based, Mycobacterium smegmatis; details: combination of fusidic acid and Eis inhibition
Protocol: M. smegmatis mc^2155 overnight cultures were treated with FA, EIS inhibitor 1a*, or a combination hereof. Cultures were treated with antibiotic for 1 hour before second antibiotic was administered. Before treatment, and after 2 hours and at day 1,2,3 and 6, the OD600 was determined with a spectrophotometer, and a sample of the culture was fixed, or plated in a dilution series on 7H10 plates in triplo. At day 2, the antibiotic treatment was repeated. At least 3 independent experiments were quantified per condition.
In all experiments, factor correction was applied to remove systematic differences between the different measuring sessions needed to obtain the results. In case of 2 experimental conditions, Student's t-test was applied. […] To further dissect these effects, a 1-way ANOVA per time point was performed.

M. smegmatis mc^2155 [3] = assay: Transmission electron microscopy of ultrathin sections; format: cell-based, Mycobacterium smegmatis; details: FA treated, early log phase
[4] = test system: M. smegmatis mc^23449 SMC triple deletion mutant; format: cell-based, Mycobacterium smegmatis; details: FA 1 hour, FIGS. 6A-B
M. smegmatis mc^2155 [5] = assay: DNA localization / DNA-condensation by fluorescence microscopy; format: cell-based, Mycobacterium smegmatis
M. tuberculosis mc^26030 [6] = format: cell-based, Mycobacterium tuberculosis; details: 1 hour after FA treatment vs untreated
M. smegmatis mc^2 155 = assay: DNA volume quantification (deconvolved wide-field FM); format: cell-based, Mycobacterium smegmatis; details: incubated with FA for 1 hour, FIG. 5B
Protocol: Z-stack Wide-field FM images of fixed M. smegmatis mc^2 155 stained for DNA and lipids were collected at 200 nm increments. Deconvolution and DNA volume quantification was subsequently performed using standard deconvolution parameters of Huygens Professional software (Scientific Volume Imaging, SVI, Hilversum, The Netherlands). Average volume was determined for 60 bacteria per condition per experiment and standard deviation was calculated with 2-tailed T-test.

M. smegmatis = assay: Live cell imaging with bacterial viability staining; format: cell-based, Mycobacterium smegmatis; details: live-cell imaging started 5 minutes after FA addition

`[H]/N=C(/N)N[C@H]1[C@H](O)[C@@H](O)[C@H](O[C@@H]2O[C@@H](C)[C@](O)(C=O)[C@H]2O[C@@H]2O[C@@H](CO)[C@H](O)[C@@H](O)[C@@H]2NC)[C@@H](N/C(N)=N\[H])[C@@H]1O` [streptomycin] was tested, and the “fraction of bacilli with condensed DNA” value (M. tuberculosis mc^26030 [1]) was “increased the percentage bacteria with condensed DNA significantly” and the “induction of condensation of the DNA” value (M. tuberculosis mc^26030 [1]) was “can induce condensation of the DNA”.

`CC(=O)NC[C@H]1CN(c2ccc(N3CCOCC3)c(F)c2)C(=O)O1` [linezolid] was tested, and the “induction of condensation of the DNA” value (M. tuberculosis mc^26030 [1]) was “can induce condensation of the DNA”.

In the case of `CC(=O)O[C@H]1C[C@@]2(C)[C@@H](C[C@@H](O)[C@H]3[C@@]4(C)CC[C@@H](O)[C@@H](C)[C@@H]4CC[C@@]32C)/C1=C(\CCC=C(C)C)C(=O)O` [fusidic acid], the “potentiation of efficacy by the combination” value (M. smegmatis mc^2155 [2]) is reported as 10 fold, the “incidence of DNA-condensation after wash-out (reversibility)” value (M. tuberculosis mc^26030 [1]) is reported as “increased until 6 hours after treatment, followed by a gradual reduction” and the “fraction of bacilli with condensed DNA” value (M. tuberculosis mc^26030 [1]) is reported as “increased the percentage bacteria with condensed DNA significantly”. For the same compound, the “DNA localization after FA treatment” value (M. tuberculosis mc^26030 [1]; same experimental conditions as M. smegmatis, FIG. 2B) was “condensed their DNA into a single nucleoid”, the “induction of condensation of the DNA” value (M. tuberculosis mc^26030 [1]) was “can induce condensation of the DNA” and the “ultrastructural DNA localization (TEM)” value (M. smegmatis mc^2155 [3]) was “bundles of DNA were localized in a single compact nucleoid”. For the same compound, the “DNA condensation after FA treatment in SMC triple knock out” value [4] was “clearly visible”, the “DNA distribution after 2 days” value (M. smegmatis mc^2155 [5]; 2 days of incubation, first agent 1 hour before second) was “still displayed condensed DNA” and the “bacteria that condensed their nucleoid” value (M. smegmatis mc^2155 [5]; after 1 hour of antibiotic stress, FIG. 2C) was “more than 80%”. The “bacteria that condensed their DNA into a single nucleoid after FA treatment” value (M. smegmatis mc^2155 [5]; early log phase, FIG. 2A) was “more than 90%”, the “percentage of nonviable bacteria with condensed DNA” value (M. tuberculosis mc^26030 [6]) was “did not differ” and the “percentage of viable bacteria with condensed DNA” value (M. tuberculosis mc^26030 [6]) was “increased significantly”. For the same compound, the “average 3D volume of the DNA clusters” value (M. smegmatis mc^2 155) was 0.24 μm^3 and the “time until first bacteria converted from viable to inviable” value (M. smegmatis) was 16 min.

With `NNC(=O)c1ccncc1` [isoniazid] the “induction of condensation of the DNA” value (M. tuberculosis mc^26030 [1]) was “can induce condensation of the DNA”.

With `CCn1cc(C(=O)O)c(=O)c2ccc(C)nc21` [nalidixic acid] the “fraction of bacilli with condensed DNA” value (M. tuberculosis mc^26030 [1]) was “increased the percentage bacteria with condensed DNA significantly” and the “induction of condensation of the DNA” value (M. tuberculosis mc^26030 [1]) was “can induce condensation of the DNA”.
